According to patent US9605013B2, “Derivatives of hemin with antibacterial and antiviral activity” (OBSCHESTVO S OGRANICHENNOI OTVETSTVENNOSTIYU …, priority 2011, dated 2017):
Marks after values point to notes of the source that are not given here.

Tests used:
[1] = system: Micrococcus luteus BKM Ac-2230; assay: Antibacterial activity, serial dilutions in liquid MH medium; type: cell-based; conditions: for MIC: MH medium, 20 h, 37° C., 100% growth inhibition; for MBC: no colonies on agarized MH medium
Description: (§1) The antibacterial activity of the compounds was determined against strains of gram-positive bacteria such as Staphylococcus aureus 209P, Enterococcus faecalis BKM B-871, Micrococcus luteus BKM Ac-2230, Bacillus subtilis BKM B-501, and gram-negative bacteria such as Pseudomonas aeruginosa PAO1 and Escherichia coli KM MGU C-600. BKM strains were acquired from the All-Russia Collection of Microorganisms at the Institute for Biochemistry and Physiology of Microorganisms, Russian Academy of Sciences. Strain Staphylococcus aureus 209P was acquired from the Collection of Microorganisms at the Department of microbiology of the Faculty of Biology of Lomonosov Moscow State University, and Pseudomonas aeruginosa PAO1 was acquired from the Collection of Microorganisms at the Institute of Bioorganic Chemistry of the Russian Academy of Sciences.
(§2) The main parameters characterizing the antibacterial activity are the minimal inhibitory concentration (MIC) and minimal bactericidal concentration (MBC). […] MBC is the least concentration that causes the death of all cells.
(§3) MIC was quantified by inhibiting culture growth in a liquid medium with serial dilutions of compounds using a modified procedure [Amsterdam, D., 1966. “Susceptibility testing of antimicrobials in liquid media,” pp. 52-111. In Loman, V., ed. Antibiotics in laboratory medicine, 4th ed. Williams and Wilkins, Baltimore].
(§4) Bacteria were cultured and tested on an MH liquid medium (Mueller-Hinton medium: a dry extract of beef broth, 4 g/L; starch, 1.5 g/L; casein hydrolyzate, 17.5 g/L; Sigma-Fluka Catalog No. 70192) at 37° C., 100% humidity, and under stirring. Cultures (within 4 to 7 passages after thawing) in the exponential growth phase were used for tests.
(§5) All tested compounds absorb light at 595 nm, a wavelength used for evaluating bacterial culture growth. Therefore, a correction for absorption was applied in estimating the optical density of bacterial suspensions for each compound with account for its concentration in the well. Bacterial growth inhibition (GI) as percentage after 20 hours of incubating cells with compounds was derived from the optical density (A) measured in every well at a wavelength of 595 nm using the equation: GIi=[(Act−Ac0)−(Ait−Ai0)]×100/(Act−Ac0), (1) wherein the subscripts have the following meanings: i denotes the well number, c denotes a control well with bacteria whereto the tested compound is not inserted, 0 refers to the measurement taken immediately once the tested compound was inserted to the well, and t refers to the measurement taken 20 hours after the compound was inserted.
(§6) The protocol for the determination of experimental antibacterial activity of the tested compounds was as follows. A cryovial with the test strain culture in a medium with 7% DMSO stored in liquid nitrogen, was rapidly defrosted, and 1.5 mL of the fresh MH medium was inoculated with 100 μL of the cell suspension. Cells were grown for one day at 37° C. and stirred on an orbital shaker at 150 rpm. The morphologic features of the strain and the absence of contamination with foreign bacteria were verified by: (a) inoculation on an agarized (15 g/L agar) MH medium and observation of the shape and color of the grown colonies and (b) examination of characteristic morphologic features under a microscope (Mikmed-2, LOMO, Russia) equipped with a 40× objective lens. Further, the bacteria were cultured in 1 mL of the liquid MH medium at 37° C. under stirring. The cells were reseeded every day. Cell cultures were used in tests starting with 3rd reseeding and ending with 6th one.
(§7) For testing, 5 μL of a bacterial suspension in the stationary growth phase was transferred to 1 mL of a sterile MH medium and incubated until the exponential growth phase was attained (3 to 5 h, 37° C., stirring at 150 rpm). To estimate the microorganism concentration, the optical density (A) of the resulting bacterial culture was measured at a wavelength of 595 nm. […]

[2] = system: Bacillus subtilis BKM B-501; assay: as above; type: cell-based; conditions: for MIC: MH medium, 20 h, 37° C., 100% growth inhibition; for MBC: no colonies on agarized MH medium
Description: as §1, §2, §3, §4, §5, §6, §7

[3] = system: Staphylococcus aureus 209P; assay: as above; type: cell-based; conditions: for MIC: MH medium, 20 h, 37° C., 100% growth inhibition; for MBC: no colonies on agarized MH medium
Description: as §1, §2, §3, §4, §5, §6, §7

[4] = system: Staphylococcus aureus No. 3797 (MRSA); assay: Antibacterial specific activity, twofold dilutions, visual growth evaluation; type: cell-based; conditions: St. aur No. 3797 MRSA; 36° C., 24 hours
Description: (§8) The specific activity of compounds also was determined against bacteria strains such as Staphylococcus aureus No. 25923 ATCC (American Type Culture Collection); Staphylococcus aureus No. 100 KC; Staphylococcus epidermidis No. 533; Enterococcus faecalis No. 559; Enterococcus faecium No. 569, Staphylococcus aureus No. 5 (MRSA), Staphylococcus aureus No. 3797 (MRSA). Staphylococcus aureus was cultured on the Trypticase Soy Agar (BBL) commercially available dry medium. Enterococcus faecalis was cultured on the Columbia Agar (BBL) commercially available dry medium. These media were sterilized by autoclaving at 121° C. for 15 min. Bacterial inoculum was constant and was 5×10^5 CFU/ml (10^5 CFU/0.2 ml). For water-soluble compounds, wells from 2nd through 8th were added with the solvent (water) in an amount of 15 μL per well, then the 1st well was added with 30 μL of the stock solution of the tested compound in […] with a concentration of […], and the concentration was adjusted to 0.007×10^3 M by serial twofold dilutions. A 10-μL portion was taken from every well, and 190 μL of the bacterial culture (10^5 CFU) was added per well. For DMSO-soluble compounds, wells from 2nd through 8th were added with the solvent (DMSO) in an amount of 10 μL per well, then the 1st well was added with 20 μL of the stock solution of the tested compound in […] with a concentration of […], and the concentration was adjusted to 0.039×10^3 M by serial twofold dilutions. A 2-μL portion was taken from each well, and 198 μL of the bacterial culture (10^5 CFU) was added per well.
(§9) The control comprised wells free of tested compounds (culture growth control). In addition, purity control of nutritional media and solvents was used. Plates were incubated in a thermostat at 36° C. for 24 hours.
(§10) Culture growth was evaluated visually by comparison of how microorganisms grew in the presence of tested compounds and in the absence of them. MIC was set equal to the last dilution of a tested agent which suppressed bacterial culture growth.

[5] = system: Staphylococcus aureus No. 100 KC; assay: as above; type: cell-based; conditions: S. aureus 100 KC; 36° C., 24 hours
Description: as §8, §9, §10

[6] = system: Enterococcus faecalis No. 559; assay: as above; type: cell-based; conditions: E. faecalis 559; 36° C., 24 hours
Description: as §8, §9, §10

[7] = system: Staphylococcus epidermidis No. 533; assay: as above; type: cell-based; conditions: S. epidermis 533; 36° C., 24 hours
Description: as §8, §9, §10

[8] = system: Staphylococcus aureus No. 5 (MRSA); assay: as above; type: cell-based; conditions: St. aur No. 5 MRSA; 36° C., 24 hours
Description: as §8, §9, §10

Escherichia coli 4300 = assay: as above; type: cell-based; conditions: E. coli 4300; 36° C., 24 hours
Description: [Worded in the source for another organism; this organism is reported under the same test.] as §8, §9, §10

[9] = system: Staphylococcus aureus No. 25923 ATCC; assay: as above; type: cell-based; conditions: S. aureus 25923; 36° C., 24 hours
Description: as §8, §9, §10

[10] = system: Vancomycin-resistant Enterococcus faecium 569; assay: as above; type: cell-based; conditions: Vancomycin-resistant E. faecium 569; 36° C., 24 hours
Description: as §8, §9, §10

[11] = system: Enterococcus faecalis BKM B-871; assay: Antibacterial activity, serial dilutions in liquid MH medium; type: cell-based; conditions: for MIC: MH medium, 20 h, 37° C., 100% growth inhibition; for MBC: no colonies on agarized MH medium
Description: as §1, §2, §3, §4, §5, §6, §7

Row | Compound | MIC [1] [µM] | MBC [1] [µM] | MIC [2] [µM] | MBC [2] | MIC [3] [µM] | MIC [4] [µM] | MIC [5] [µM] | MIC [6] [µM] | MIC [7] [µM] | MIC [8] [µM] | MIC (Escherichia coli 4300) [µM] | MIC [9] [µM] | MIC [10] [µM] | water solubility (Water solubility) | MIC [11] [µM] | MBC [11] | MBC [3]
1 | 6,7-bis-(N^α-Glycyl]-Protohemin (IX) [VII] | 12.5 | 25 | 25 | 25 µM | 50 | 6.25 | 12.5 | >50.0 | 6.25 | 6.25 | >50.0 | 2.6 | >50.0 | – | – | – | –
2 | 6,7-bis-[(Methyl Ester N^α-L-Seryl)-L-Arginyl]-Protohemin (IX) [XIX] | – | – | – | – | – | 1.3 | 0.78 | 1.3 | 1.3 | 1.56 | >50.0 | 0.65 | 6.25 | – | – | – | –
3 | 6,7-bis-[(N^α-L-Arginyl)-L-Seryl]-Protohemin (IX) [XXIV] | – | – | – | – | – | 25 | 5.20 | >50.0 | 2.60 | 25 | >50.0 | >50.0 | 6.25 | – | – | – | –
4 | 6,7-bis-[(N^α-L-Seryl)-L-Arginyl]-Protohemin (IX) [XXII] | – | – | – | – | – | 20.8 | 0.39 | >50.0 | 1.3 | 25 | >50.0 | 1.3 | 5.2 | – | – | – | –
5 | C=CC1=C(C)c2cc3[n-]c(cc4[n-]c(cc5nc(cc1n2)C(C)=C5C=C)c(C)c4CCC(=O)N[C@@H](CCC(=O)NCCO)C(=O)NCCO)c(CCC(=O)N[C@@H](CCC(=O)NCCO)C(=O)NCCO)c3C.[Cl-].[Fe+3] [XI, 6,7-bis-[(Di-2-hydroxyethylamide)-L-glutamyl]-Protohemin (IX)] | – | – | – | – | – | 12.5 | >50.0 | 33.3 | 6.25 | 12.5 | >50.0 | 0.39 | >50.0 | water-insoluble | – | – | –
6 | C=CC1=C(C)C2=Cc3c(C=C)c(C)c4[n]3[Fe]([Cl])[n]3c(c(C)c(CCC(=O)N[C@@H](CCCNC(=N)N)C(=O)OC)c3=CC3=NC(=C4)C(C)=C3CCC(=O)N[C@@H](CCCNC(=N)N)C(=O)OC)=CC1=N2 [XV, reference compound] | 1.6 | 3.2 | 3.1 | 3.1 µM | 50 | – | 50 | 25 | 25 | – | >50 | 25 | >50 | – | 50 | 400 µM | 200 µM
7 | C=CC1=C(C)C2=Cc3c(C=C)c(C)c4[n]3[Fe]([Cl])[n]3c(c(C)c(CCC(=O)N[C@@H](CCC(=O)N[C@@H](CCCNC(=N)N)C(=O)OC)C(=O)N[C@@H](CCCNC(=N)N)C(=O)OC)c3=CC3=NC(=C4)C(C)=C3CCC(=O)N[C@@H](CCC(=O)N[C@@H](CCCNC(=N)N)C(=O)OC)C(=O)N[C@@H](CCCNC(=N)N)C(=O)OC)=CC1=N2 [XVI, reference compound] | 3.1 | 12.5 | 1.6 | >200** μM | 6.3 | – | – | – | – | – | – | – | – | – | 12.5 | >200** μM | >200** μM
8 | C=CC1=C(C)C2=Cc3c(C=C)c(C)c4[n]3[Fe]([Cl])[n]3c(c(C)c(CCC(=O)NCC(=O)OC)c3=CC3=NC(=C4)C(C)=C3CCC(=O)NCC(=O)OC)=CC1=N2 [XVII, reference compound] | 1.6 | 6.5 | 12.5 | 25 µM | 50 | – | >50 | 25 | 25 | – | >50 | 25 | >50 | – | 100 | >200** μM | 50 µM
9 | C=CC1=C(C)C2=Cc3c(C=C)c(C)c4[n]3[Fe]([Cl])[n]3c(c(C)c(CCC(=O)N[C@@H](CO)C(=O)OC)c3=CC3=NC(=C4)C(C)=C3CCC(=O)N[C@@H](CO)C(=O)OC)=CC1=N2 [XVIII, reference compound] | 6.3 | 12.5 | 6.3 | 9 µM | 25 | – | – | – | – | – | – | – | – | – | 12.5 | 25 µM | 200 µM
